Assays:
Assay in all cases: relative viability (nuclei count vs DMSO), 5 days (fraction); higher = more cells survive
[1] = compound: C1=CC2=C(C=C(C(=C2N=C1)O)N=NC3=CC4=C(C=C3)C=C(C=C4)S(=O)(=O)O)S(=O)(=O)O + C[C@]1(O)C[C@@H](c2nc(-c3ccc4ccc(-c5ccccc5)nc4c3)c3c(N)nccn32)C1 [Linsitinib] (partner 1 µM)
Outline: (§1)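 Values are medians from duplicate plates. Each reflects relative viability, defined as the nuclei count of treated wells over that of vehicle wells. Lung cancer cell lines in 1536-well plates were pin-tool dosed one day after seeding with one drug alone or with a fixed anchor-drug dose plus five library-drug doses (not always all listed) in √10 steps, then fixed, stained and imaged at 4× after 5 days.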

AT-7519 + Pemetrexed = compound: O=C(NC1CCNCC1)c1n[nH]cc1NC(=O)c1c(Cl)cccc1Cl [AT-7519] + Nc1nc2[nH]cc(CCc3ccc(C(=O)N[C@@H](CCC(=O)O)C(=O)O)cc3)c2c(=O)[nH]1 [Pemetrexed] (partner 0.2 µM)
Outline: as §1

AT-7519 + Olaparib = compound: O=C(NC1CCNCC1)c1n[nH]cc1NC(=O)c1c(Cl)cccc1Cl [AT-7519] + O=C(c1cc(Cc2n[nH]c(=O)c3ccccc23)ccc1F)N1CCN(C(=O)C2CC2)CC1 [Olaparib] (partner 8 µM)
Outline: as §1

AT-7519 + Crizotinib = compound: O=C(NC1CCNCC1)c1n[nH]cc1NC(=O)c1c(Cl)cccc1Cl [AT-7519] + C[C@@H](Oc1cc(-c2cnn(C3CCNCC3)c2)cnc1N)c1c(Cl)ccc(F)c1Cl [Crizotinib] (partner 1 µM)
Outline: as §1

| Cell Line | relative viability ([1]; first compound 0.08 µM) | relative viability ([1]; first compound 0.253 µM) | relative viability ([1]; first compound 0.8 µM) | relative viability ([1]; first compound 2.53 µM) | relative viability ([1]; first compound 8 µM) | relative viability (AT-7519 + Pemetrexed; first compound 0.01 µM) | relative viability (AT-7519 + Pemetrexed; first compound 0.03162 µM) | relative viability (AT-7519 + Pemetrexed; first compound 0.3162 µM) | relative viability (AT-7519 + Pemetrexed; first compound 1 µM) | relative viability (AT-7519 + Olaparib; first compound 0.01 µM) | relative viability (AT-7519 + Olaparib; first compound 0.03162 µM) | relative viability (AT-7519 + Olaparib; first compound 0.3162 µM) | relative viability (AT-7519 + Olaparib; first compound 1 µM) | relative viability (AT-7519 + Crizotinib; first compound 0.01 µM) | relative viability (AT-7519 + Crizotinib; first compound 0.03162 µM) | relative viability (AT-7519 + Crizotinib; first compound 0.3162 µM) | relative viability (AT-7519 + Crizotinib; first compound 1 µM) |
| --- | --- | --- | --- | --- | --- | --- | --- | --- | --- | --- | --- | --- | --- | --- | --- | --- | --- |
| COR-L 105 | 0.931 | 0.939 | 1.04 | 0.985 | 1.01 | 1.26 | 1.08 | 1.07 | 0.657 | 0.71 | 0.714 | 0.726 | 0.564 | 0.823 | 0.784 | 0.469 | 0.289 |
| RERF-LC-KJ | 0.945 | 0.954 | 0.888 | 0.979 | 0.87 | 0.448 | 0.473 | 0.414 | 0.303 | 0.884 | 0.964 | 0.659 | 0.242 | 0.802 | 0.738 | 0.963 | 0.806 |
| LXF-289 | 1.05 | 0.977 | 0.957 | 1.02 | 0.917 | 0.866 | 0.905 | 0.909 | 0.992 | 1.09 | 1.15 | 1.02 | 1.06 | 0.838 | 0.898 | 0.811 | 0.816 |
| PC-14 | 1.03 | 0.936 | 0.962 | 0.948 | 1.1 | 0.138 | 0.135 | 0.118 | 0.103 | 0.234 | 0.227 | 0.231 | 0.104 | 0.755 | 0.911 | 0.818 | 0.811 |
| NCI-H650 | 0.652 | 0.755 | 0.884 | 0.769 | 0.576 | 1.07 | 1 | 0.931 | 1.25 | 0.413 | 0.384 | 0.439 | 0.349 | 0.788 | 0.797 | 0.733 | 0.625 |
| NCI-H1666 | 0.876 | 0.831 | 0.74 | 0.84 | 0.673 | 0.871 | 0.777 | 0.828 | 0.651 | 0.674 | 0.724 | 0.68 | 0.65 | 0.902 | 0.972 | 0.726 | 0.604 |
| NCI-H2085 | 1.06 | 0.927 | 0.978 | 0.821 | 0.892 | 0.924 | 1.01 | 0.901 | 0.986 | 0.768 | 0.806 | 0.744 | 0.724 | 0.762 | 0.832 | 0.696 | 0.553 |
| NCI-H1734 | 0.909 | 0.877 | 0.816 | 0.884 | 0.897 | 0.426 | 0.435 | 0.383 | 0.366 | 0.535 | 0.585 | 0.537 | 0.263 | 0.662 | 0.724 | 0.544 | 0.305 |
| NCI-H2126 | 0.72 | 0.688 | 0.718 | 0.752 | 0.731 | 0.711 | 0.745 | 0.689 | 0.576 | 0.902 | 0.935 | 0.932 | 0.874 | 1.07 | 1.05 | 0.931 | 1 |
| EMC-BAC-2 | 0.912 | 0.821 | 0.825 | 0.823 | 0.8 | 0.464 | 0.442 | 0.438 | 0.514 | 0.508 | 0.48 | 0.506 | 0.56 | 0.766 | 0.744 | 0.746 | 0.881 |
| NCI-H1993 | 0.757 | 0.694 | 0.653 | 0.702 | 0.717 | 0.536 | 0.581 | 0.522 | 0.532 | 1.04 | 0.833 | 0.973 | 0.769 | 0.846 | 0.82 | 0.813 | 0.577 |
| NCI-H520 | 1.1 | 1.12 | 1.07 | 0.968 | 1.01 | 0.815 | 0.635 | 0.619 | 0.389 | 0.341 | 0.315 | 0.287 | 0.201 | 0.753 | 0.768 | 0.595 | 0.269 |
| NCI-H647 | 1.18 | 1.16 | 1.25 | 1.09 | 1.03 | 0.142 | 0.159 | 0.177 | 0.129 | 0.355 | 0.55 | 0.482 | 0.189 | 0.812 | 0.873 | 0.965 | 0.411 |
| NCI-H1792 | 0.667 | 0.48 | 0.619 | 0.592 | 0.565 | 0.612 | 0.645 | 0.666 | 0.919 | 0.282 | 0.313 | 0.522 | 0.311 | 0.548 | 0.916 | 0.904 | 1.09 |
| SK-LU-1 | 1.38 | 1.13 | 1.14 | 1.14 | 1.03 | 0.99 | 1 | 0.998 | 0.439 | 0.462 | 0.458 | 0.489 | 0.324 | 1.12 | 0.799 | 0.713 | 0.48 |
| NCI-H2009 | 1.21 | 1.07 | 1.21 | 1.2 | 1.19 | 1.11 | 0.932 | 1.08 | 0.869 | 0.663 | 0.697 | 0.61 | 0.707 | 1.21 | 1.07 | 1.12 | 0.295 |
| LOU-NH91 | 0.991 | 0.988 | 0.957 | 0.973 | 0.891 | 0.306 | 0.359 | 0.385 | 0.506 | 0.911 | 0.899 | 0.931 | 0.785 | 0.73 | 0.742 | 0.766 | 0.711 |
| NCI-H2405 | 0.909 | 0.873 | 0.943 | 1.04 | 0.948 | 1.02 | 0.996 | 1.08 | 0.729 | 0.89 | 0.783 | 0.906 | 0.606 | 0.794 | 0.847 | 0.827 | 0.598 |

Reference: the supplement of paper PMC10307832
